Source: the supplement of paper PMC11451515

Tested on: SEM cells
Test: cell viability relative to DMSO control; higher = less cytotoxic
Details: 48 h
How it was run: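 In 1536-well plates, 5 μl of leukemia cells were seeded per well: 500 cells/well for NOMO1 or SEM and 1000 cells/well for P12-Ichikawa. Each line had first been adapted for at least four passages in each medium. Library compounds in DMSO were pin-dosed at 11 threefold concentrations between 47 μM and 0.79 nM, and CellTiter-Glo One luminescence was read after 48 h at 37°C. Viability is a per-plate percentage relative to DMSO wells, with cell-free wells as background.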

CC(C)(C)[C@]1(O)C[C@@H]2OC(=O)C[C@@]23C(=O)O[C@@H]2OC(=O)[C@H](O)C213 (some centres not stated)
cell viability [%]
Details | HPLM + 10% dialyzed FBS | RPMI 5 mM glucose + 10% FBS
0.000781 µM | 113 | 110
0.00234 µM | 108 | 139
0.00702 µM | 109 | 120
0.0211 µM | 104 | 148
0.0632 µM | 110 | 114
0.19 µM | 99.1 | 108
0.569 µM | 104 | 113
1.71 µM | 111 | 90.4
5.12 µM | 105 | 118
15.4 µM | 113 | 134
46.1 µM | 115 | 125
